From patent US20070071773A1, “Compositions and methods for the treatment and prophylaxis of infections caused by gram positive bacteria” (priority 2002, published 2007)

How the values were obtained:
GAS strain JS95 = assay: Murine model of invasive soft-tissue infection: survival and skin lesions after subcutaneous challenge with JS95; format: in vivo, Group A Streptococcus (GAS)
Procedure: The ability of GAS to cause lethal infection in ten-gram BALB/c female mice (Harlan Laboratories, Jerusalem, Israel) was assessed as described before [Ravins, M. et al. J. Infect. Dis. 182:1702-11 (2000)]. Briefly, 10^8 CFU of log-phase bacteria were washed twice in PBS, resuspended in 0.1 ml PBS and injected subcutaneously into the back of a mouse. The number of CFU injected was verified for each experiment by plating bacteria on THY-blood agar plates and counting. Each group contained 8 to 10 mice that were observed daily for death and changes in the lesions' properties such as size and depth, or were sacrificed at different times after inoculation for histopathological assessment. To determine the presence of bacteria in skin and spleen, mice were sacrificed; a wide area surrounding the skin lesions was excised, spleens were removed, and organs were homogenized in 10 or 1 ml of sterile PBS, respectively. Aliquots were plated and streptococcal colonies were counted. The Institutional Ethics Committee for animal care approved all animal procedures (approval number MD 79.17-4).
Therefore, the inventors next tested the peptide effect on virulence of the highly invasive strain of the invention. A 17 amino acid peptide, corresponding to the amino acid sequence encoded by the SilCR ORF, was synthesized and purified. Mice were challenged with the highly virulent strain (JS95) in the presence and absence of the 17 amino acid synthetic peptide DIFKLVIDHISMKARKK (also denoted by SEQ ID NO: 32), of a 70% purity.
The ability of the peptide to protect mice inoculated with increasing doses of the bacteria ranging from 10^7 to 10^10 CFU was next examined. […] Mice challenged with a low dose of 10^7 CFU, in the absence of the peptide, died within 4 days after challenge. […] Results were consistent even after 21 days of follow up (data not shown).
Mice were injected under the surface of the skin with 2×10^8 of M14 GAS strain, JS95, without (FIG. 8A) or with 25 μg of the highly purified (90% purity) 17 amino acid peptide (SEQ ID NO: 32) (FIG. 8B).
In order to examine the ability of the 17 amino acid peptide (SEQ ID NO: 32) to protect against bacterial challenge, mice were injected with 200 μg of this peptide 24 hours prior to bacterial challenge. As shown by FIG. 9, the 17 amino acid peptide protects 50% of the mice when injected 24 hours before bacterial challenge of 4×10^8 CFU of JS95 strain.

JS95 = assay: IL-8 proteolytic activity of supernatant of JS95 grown in the presence of SilCR; format: cell-based, Group A Streptococcus (GAS); conditions: JS95 grown in the presence of SilCR (25 then 50 μg/ml); FIG. 15A
Procedure: […] was grown in the absence and presence of SilCR (50 μg/ml). IL-8 was incubated with the indicated supernatant fractions and then subjected to 18% SDS-PAGE. The separated protein bands were electro-transferred to a nitrocellulose membrane. Anti-IL-8 antibody and a secondary antibody conjugated to horseradish peroxidase were used to detect IL-8. The number of the lane represents incubation of IL-8 with: 1, DMEM+FCS (control); 2, JS95 supernatant; 3, JS95 supernatant grown in the presence of SilCR; 4, JS95 supernatant, pretreated with pefabloc SC; 5, supernatant of JS95 grown in the absence of SilCR, then 50 μg/ml of SilCR was added to the degradation assay.
15A The column numbers represent the ELISA results after incubation of IL-8 with: 1, DMEM+FCS (control); and the supernatants of: 2, JS95; 3, JS95 grown in the presence of SilCR; 4, JS95 pretreated with aprotenin; 5, JS95 pretreated with soybean trypsin inhibitor; 6, JS95 pretreated with benzamidine. The background of the ELISA assay (0.08±0.004) was subtracted from the shown results. The data represent the mean ± SD, of three separate experiments. […]
C. Proteolysis of chemokines was determined by ELISA and Dot-blot. IL-8 content was quantified by ELISA using the Quantikine kit for determination of human IL-8 (R&D Systems, Minneapolis, Minn.) according to the manufacturer's instructions.

[1] = test system: serotype M14, M1 and M3 strains; assay: Neutrophil recruitment in mice challenged with different GAS serotypes; format: in vivo, Group A Streptococcus (GAS)
Description: The absence (M1 and M3) or mutation (M14) of the gene encoding the SilCR pheromone in those GAS strains may eliminate a counter-regulatory mean to a GAS chemokine proteolysis, resulting in an increased virulence potential for invasive soft tissue infections.

C5a peptidase = assay: Surface expressed C5a peptidase of GAS in the absence and presence of SilCR; format: cell-based, Group A Streptococcus (GAS); conditions: absence vs presence of SilCR (not shown)
[2] = peptide of 90% purity mixed with 10^8 CFU JS95, subcutaneous, FIG. 6

DIFKLVIDHISMKARKK (SilCR peptide) [17 amino acid synthetic peptide, predicted mature form of the pheromone peptide encoded by the SilCR ORF; used at 70% or 90% purity]
protection of mice (survival) (GAS strain JS95; 3 μg of the 90% purified peptide, JS95 challenge as high as 10^10 CFU, FIG. 16A): protected mice | survival of mice (GAS strain JS95; 25 μg peptide (90% purity) with 2×10^8 JS95 under the surface of the skin, FIG. 8): all mice of this group survived | skin lesion (GAS strain JS95; 25 μg peptide (90% purity) with 2×10^8 JS95 under the surface of the skin, FIG. 8B, 8D): small abscess surrounded by a normal skin | protection of mice (survival) (GAS strain JS95; 100 μg peptide (70% purity) injected together with 10^7 CFU JS95, FIG. 5): partial protection | mice protected (GAS strain JS95; 200 μg peptide (70% pure) injected 24 hours before challenge with 4×10^8 CFU JS95, FIG. 9): 50% | protection of mice (survival) (GAS strain JS95; 200 μg peptide (70% pure), challenge with 10^7 and up to 10^9 CFU JS95, FIG. 7): completely protected | deaths of mice (GAS strain JS95; 200 μg peptide (70% pure), challenge with 10^10 CFU JS95, FIG. 7): only one mouse died | protection of mice (survival) (GAS strain JS95; 200 μg peptide (70% purity) injected together with 10^7 CFU JS95, FIG. 5): complete protection | lesions of mice (GAS strain JS95; challenged with JS95 and SilCR, compared with JS95 alone, FIG. 8B vs 8A): significantly smaller, less necrotic and superficial, with defined borders | dose dependence of protection of mice (GAS strain JS95; peptide of 70% purity, 10^7 CFU JS95, FIG. 5): dose-dependent | peptide dose at which the protective effect is evident (GAS strain JS95; [2]): 3 µg | peptide dose reaching plateau level of protection (GAS strain JS95; [2]): 50 µg | protection of mice when administered at a site distant to the bacterial challenge (GAS strain JS95; simultaneously administered at a distant site): nor did it protect mice | IL-8 proteolytic activity of the strain (JS95): markedly reduced | neutrophil recruitment [1]: improved neutrophil recruitment | amount of surface expressed C5a peptidase (C5a peptidase): did not observe any change
